Source: patent US7183274B2, “Piperidine-2,6-diones heterocyclically substituted in the 3-position” (Gruenenthal GmbH, priority 2001, dated 2007)
Values after ≈ are worked out from the molar mass of the structure shown.

Assays:
[1] = system: IL-12 production of LPS-activated monocytes; assay: Inhibition of IL-12 production of LPS-activated human monocytes (ELISA of culture supernatant); assay type: cell-based; conditions: 20 μg/ml LPS from E. coli, 24 hours; for IC50: Monocyte
Description: (§1) Stimulation of human monocytes with lipopolysaccharide for the secretion of IL-10 and IL-12:
(§2) Human monocytes were isolated from peripheral blood mononuclear cells (PBMC) that had been obtained by means of a ficoll density gradient centrifugation from heparinized full blood. For this purpose the PBMC were incubated with a monoclonal antibody that is directed against the monocyte-specific surface molecule CD14 and on which are coupled superparamagnetic microbeads (Miltenyi Biotech, Bergisch Gladbach). For the positive selection of the marked monocytes from the cell mixture of the PBMC, the total cell suspension was added to a column with ferromagnetic carrier matrix and this was placed in a magnetic field. In this way the cells that were loaded with microbeads were bound to the carrier matrix while unmarked cells passed through the column and were discarded. After removing the matrix from the magnetic field the antibody-loaded cells were eluted by rinsing the now demagnetized column with buffer. The purity of the CD14-positive monocyte population obtained in this way is about 95–98%. These monocytes were incubated for 1 hour at 37° C. and 5% CO2 in a density of 10^6 cells/ml culture medium (RPMI, supplemented with 10% fetal calf serum) with the test substances dissolved in DMSO. 20 μg/ml LPS from E. coli were then added. After 24 hours cell-free culture supernatants were taken and tested for their content of IL-10 as well as IL-12.
(§3) The concentration of IL-12 and IL-10 in the cell culture supernatants was determined by means of sandwich ELISAs using two anti-IL-12 and IL-10 monoclonal antibodies (Biosource Europe, Fleurus, Belgium). A reference standard curve with human IL-10 and IL-12 was included. The detection limit of the IL-12 ELISA was 10 pg/ml, and that of the IL-10 ELISA was 15 pg/ml.

[2] = system: IL-10 production of LPS-activated monocytes; assay: Increase in IL-10 production of LPS-activated human monocytes (ELISA of culture supernatant); assay type: cell-based; conditions: 20 μg/ml LPS from E. coli, 24 hours
Description: as §1, §2, §3

| Structure (SMILES) | Inhibition of IL-12 Production Maximum (%) [1] [%] | IC50 [1] [µg/mL] | Increase in IL-10 Production Maximum (%) [2] [%] | Inhibition of IL-12 Production IC50 [1] [ng/mL] |
| --- | --- | --- | --- | --- |
| Br.O=C1CCC(N2C=Nc3ccccc3C2)C(=O)N1 (stereo not drawn) [Example 3, 3-(4H-quinazolin-3-yl)piperidine-2,6-dione; hydrobromide] | 98 | 0.01 | 230 |  |
| O=C1CCC(N2C=Nc3cccc([N+](=O)[O-])c3C2)C(=O)N1 (stereo not drawn) [Example 7i, 3-(5-nitro-4H-ginazolin-3-yl)piperidine-2,6-dione] | 96 |  | 211 | 36 |
| Cc1cccc2c1CN(C1CCC(=O)NC1=O)C=N2 (stereo not drawn) [Example 7m, 3-(5-methyl-4H-quinazolin-3-yl)piperidine-2,6-dione] | 89 | 0.05 (≈ 0.194 µM) | 202 |  |
| O=C1CCC(N2C(=O)c3ccccc3C2=O)C(=O)N1 (stereo not drawn) [Thalidomide, thalidomide, reference compound] | 80 | 0.1 (≈ 0.387 µM) | 180 |  |
| O=C1CCC(N2C=Nc3cccc(F)c3C2)C(=O)N1 (stereo not drawn) [Example 7h, 3-(5-fluoro-4H-quinazolin-3-yl)piperidine-2.6-dione] | 97 |  | 316 | 6 |
| Br.O=C1CCC(N2C=Nc3cc(Cl)ccc3C2)C(=O)N1 (stereo not drawn) [Example 1, 3-(7-chloro-4H-quinazolin-3-yl)piperidine-2,6-dione; hydrobromide] | 99 | 0.005 | 360 |  |
| Cl.O=C1CCC(N2C=Nc3cc(F)ccc3C2)C(=O)N1 (stereo not drawn) [Example 7f, 3-(7-fluoro-4H-quinazolin-3-yl)piperidine-2,6-dione; hydrochloride] | 98 | 0.0008 | 420 |  |
| O=C1CCC(N2C=Nc3cc(F)c(F)cc3C2)C(=O)N1 (stereo not drawn) [Example 7n, 3-(6,7-difluoro-4H-quinazolin-3-yl)piperidine-2,6-dione] | 84 | 0.042 (≈ 0.15 µM) | 263 |  |
| O=C1CCC(N2C=Nc3cccc(Cl)c3C2)C(=O)N1 (stereo not drawn) [Example 7a, 3-(5-chloro-4H-quinazolin-3-yl)piperidine-2.6-dione] | 98 |  | 365 | 1 |
